Assay results published in patent publication US7709701B2, “Genetic manipulation of condensed tannins” (The Samuel Roberts Noble Foundation, priority 2004, dated 2010).

Legend:
[1] = tested on: MtBAN (Medicago truncatula BAN homolog) protein; experiment: Anthocyanidin reductase activity assay with recombinant MtBAN protein extract (HPLC of products); assay type: biochemical; settings: for Products formed on incubation with MtBAN protein extract: NADPH, 100 mM Tris-HCl pH 7.0, 30° C., 30 min, HPLC
[2] = target: AtBAN (Arabidopsis thaliana BAN) protein (Arabidopsis thaliana, UniProt Q9SEV0); assay type: biochemical; settings: for Products formed on incubation with AtBAN protein extract: NADPH as coenzyme, 4-month old frozen protein extracts, HPLC
anthocyanidin reductase [3] = experiment: Anthocyanidin reductase assay with desalted crude enzyme from Lotus corniculatus leaves; assay type: biochemical; settings: 1 mM NADPH, 100 μM cyanidin, 30° C., 30 min
Protocol: (§1) Lotus corniculatus, Desmodium uncinatum and Barley cv. Morex were grown in a greenhouse. Young leaves from L. corniculatus, unexpanded leaves, and young pods as well as open flowers and flower buds from D. uncinatum, and young grains from Barley were collected. Seed testas of barley grains were excised and pooled together for enzyme extraction. Mature grape fruit stored at −80° C. was treated in pH 7 100 mM Tris.HCl buffer for 30 seconds for isolating the skin for enzyme extraction.
(§2) A fresh one-gram leaf sample of L. corniculatus, one-gram testa from barley, and 9 grams of grape fruit skin, as well as two grams of flowers, 3 grams of young pods and 3 grams of young unexpanded leaves from Desmodium uncinatum, were independently ground into fine powders in liquid nitrogen. The follow buffer systems were used for enzyme extraction. Extraction buffer 1: pH 7 100 mM Tris.HCl, 10% glycerol and 2 mM 1,4-dithiothreitol; Extraction buffer 2: pH 8 50 mM phosphate buffer, 10% glycerol, 1.5% polyethyleneglycol 4000 (PEG-4000), 2 mM pH 8.0 Na-EDTA, 25 mM sodium ascorbate, 20 mM β-mecaptoenthanol, and 5 mM 1,4-dithiothreitol; Extraction buffer 3: pH 8 100 mM Tris.HCl, 10% glycerol 1.5% polyethyleneglycerol 4000 (PEG-4000), 2 mM pH 8.0 Na-EDTA, 25 mM sodium ascorbate, 80 mM β-mecaptoenthanol, and 5 mM 1,4-dithiothreitol. […]

anthocyanidin reductase [4] = target: T1, anthocyanidin reductase (Vitis vinifera, UniProt Q5FB34); experiment: Anthocyanidin reductase assay with desalted crude enzyme from grape fruit skin; assay type: biochemical; settings: 1 mM NADPH, 100 μM cyanidin, 30° C., 30 min
T1 construct: 100 μM cyanidin and 50-25 μg desalted crude enzyme; from tissue; host or cells: skin of mature grape fruit
Protocol: as §1, §2

anthocyanidin reductase [5] = experiment: Anthocyanidin reductase assay with desalted crude enzyme from barley testa; assay type: biochemical, Hordeum vulgare; settings: 1 mM NADPH, 100 μM cyanidin, 30° C., 30 min
Protocol: as §1, §2

anthocyanidin reductase [6] = experiment: Anthocyanidin reductase assay with desalted crude enzyme from Desmodium uncinatum flowers, leaves and young pods; assay type: biochemical; settings: 1 mM NADPH, 100 μM cyanidin, 30° C., 30 min
Protocol: as §1, §2

[7] = reactions containing leucoanthocyanidins

AtBAN (Arabidopsis thaliana BAN) protein, sequence (Q9SEV0 other isoform, or with tags, fused parts or gaps K55Q/I146L/V156I/E157D/T179K/K185E): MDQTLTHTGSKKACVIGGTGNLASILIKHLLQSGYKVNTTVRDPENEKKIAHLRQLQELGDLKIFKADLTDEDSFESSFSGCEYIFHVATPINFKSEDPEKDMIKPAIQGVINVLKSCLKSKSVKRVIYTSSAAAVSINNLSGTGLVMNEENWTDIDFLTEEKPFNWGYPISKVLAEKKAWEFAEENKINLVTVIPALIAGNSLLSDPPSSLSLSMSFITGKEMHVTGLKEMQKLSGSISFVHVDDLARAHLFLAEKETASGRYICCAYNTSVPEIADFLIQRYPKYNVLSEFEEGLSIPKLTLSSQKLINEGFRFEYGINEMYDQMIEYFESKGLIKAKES
T1 sequence (Q5FB34 whole entry R248Q): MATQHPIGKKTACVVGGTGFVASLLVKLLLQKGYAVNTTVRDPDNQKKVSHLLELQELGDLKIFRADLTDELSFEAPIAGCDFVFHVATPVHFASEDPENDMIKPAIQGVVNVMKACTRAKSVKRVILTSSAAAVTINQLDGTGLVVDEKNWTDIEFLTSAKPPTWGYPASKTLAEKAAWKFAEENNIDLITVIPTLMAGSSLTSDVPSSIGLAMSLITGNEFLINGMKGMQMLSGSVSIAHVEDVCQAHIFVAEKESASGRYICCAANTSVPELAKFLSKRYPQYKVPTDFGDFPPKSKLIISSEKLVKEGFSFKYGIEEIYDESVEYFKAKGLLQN

| Compound | Products formed on incubation with MtBAN protein extract [1] | Products formed on incubation with AtBAN protein extract [2] | further results |
| --- | --- | --- | --- |
| Oc1cc(O)c2c(c1)O[C@H](c1ccc(O)c(O)c1)[C@@H](O)C2 [(+)-catechin] | does not produce (2S,3R) configuration (−) catechin or (−)epicatechin | does not produce (2S,3R) configuration (−) catechin or (−)epicatechin | – |
| Oc1cc(O)c2c(c1)O[C@H](c1ccc(O)c(O)c1)[C@H](O)C2 [(−)epicatechin, (−)-epicatechin] | does not produce (2S,3R) configuration (−) catechin or (−)epicatechin | does not produce (2S,3R) configuration (−) catechin or (−)epicatechin | – |
| NC(=O)C1=CN([C@@H]2O[C@H](COP(=O)(O)OP(=O)(O)OC[C@H]3O[C@@H](n4cnc5c(N)ncnc54)[C@H](O)[C@@H]3O)[C@@H](O)[C@H]2O)C=CC1 [NADH] | – | – | Conversion with NADH relative to the level achieved with NADPH ([1]; NADH 2 mM final concentration substituted for NADPH): approximately 50% |
| Oc1cc(O)c2cc(O)c(-c3ccc(O)c(O)c3)[o+]c2c1.[Cl-] [cyanidin, cyanidin chloride] | reducing cyanidin to the corresponding flavan-3-ols, catechin and epicatechin | catalyze the reduction of cyanidin to epicatechin | Product formed by Lotus corniculatus leaf enzyme (anthocyanidin reductase [3]): converted cyanidin into epicatechin; Product formed by grape fruit skin enzyme (anthocyanidin reductase [4]): converted cyanidin into epicatechin; Product formed by barley testa enzyme (anthocyanidin reductase [5]): converted cyanidin into epicatechin; Product formed by Desmodium uncinatum flower, leaf and young pod enzyme (anthocyanidin reductase [6]): converted cyanidin into epicatechin |
| Oc1cc(O)c2cc(O)c(-c3cc(O)c(O)c(O)c3)[o+]c2c1 [delphinidin, delphinidin chloride] | catalyzed the reduction of delphinidin into putative gallo-catechin and epi-gallocatechin | delphinidin into gallocatechin | – |
| Oc1ccc(-c2[o+]c3cc(O)cc(O)c3cc2O)cc1 [pelargonidin, Pelargonidin chloride] | catalyzed the reduction of pelargonidin into a new compound eluting at 33.6 min | pelargonidin into epi-alfzelechin | – |
| leucoanthocyanidins | – | – | LAR activity with recombinant MtBAN [1, 7]: no LAR activity was observed; LAR activity with recombinant AtBAN [2, 7]: no LAR activity was observed |
